Earlier results in US20060257475A1, “Stable Sertraline Hydrochloride Formulation and Method” (Boehringer Ingelheim International GmbH, priority 2006, published 2006).

Legend:
[1] = reported in U.S. Pat. No. 5,734,083
[2] = reported in U.S. Pat. No. 5,248,699

Solubility [1]: extremely insoluble | Stability among Forms I to V [2]: greatest stability of these five forms
Structure (SMILES): CN[C@H]1CC[C@@H](c2ccc(Cl)c(Cl)c2)c2ccccc21 [Form I, (1S-cis)-4-(3,4-Dichlorophenyl)-1,2,3,4-tetrahydro-N-methyl-1-napththalenamine]
Thermodynamic stability relative to other crystalline forms ([2]; room temperature): more thermodynamically stable than Forms II, III, IV, and V
